# From PMC12640959, “Elucidation of anti-SARS-CoV-2 and anti-inflammatory bioactives in Qingyan Dropping Pills via integrated in silico screening and bioactivity validation” (Frontiers in Medicine, 2025)
# Test system: SARS-CoV-2 Omicron BA.5
# Assay: cytopathic effects (CPE) inhibition assay in Vero E6 cells
# Assay type: cell-based
# Conditions: result in words
smiles,measurement,value
"C[C@@H]1O[C@@H](O[C@H]2[C@H](Oc3cc(O)c4c(=O)cc(-c5ccc(O)cc5)oc4c3)O[C@H](CO)[C@@H](O)[C@@H]2O)[C@H](O)[C@H](O)[C@H]1O [RHO, rhoifolin]",inhibition of the SARS-CoV-2 Omicron BA.5 variant,failed to inhibit
